Like-named read-outs stand apart in the source and are kept apart here.
What was measured:
[1] = test system: Akt phosphorylated at Thr308 in PC-3 cells; experiment: Cellular assay: phosphorylation of Akt at Thr308 in PC-3 cells (MSD ELISA); format: cell-based; conditions: PC-3 cells, 60 min compound incubation, MSD ELISA, read-out: IC50 pAkt_Thr308
Outline: (§1)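 After lysis of treated cells (60 min, 37° C, 0.3% DMSO), phospho-Akt levels were measured by MSD electrochemiluminescence ELISA. Potency was derived from concentration-response curves fitted over five concentrations.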

[2] = test system: Akt phosphorylated at Ser473 in PC-3 cells; experiment: Cellular assay: phosphorylation of Akt at Ser473 in PC-3 cells (MSD ELISA); format: cell-based; conditions: PC-3 cells, 60 min compound incubation, MSD ELISA, read-out: IC50 pAkt_S473
Outline: as §1

PI3Kβ = target: T1, PI3Kβ (Homo sapiens, UniProt P42338); experiment: Enzyme binding assay (KINOMEscan, DiscoveRx); conditions: PIK3Cβ_h, read-out: Kd PIK3Cβ_h
T1 construct: purchased DiscoveRx Corporation, San Diego (contract service, KINOMEscan)
Outline: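 Compounds are profiled for binding to the kinase using KINOMEscan. The affinity is then reported as an inhibitor Kd in nanomolar units.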

kinase enzymes [3] = target: T2, kinase enzymes (Homo sapiens, UniProt P42336); experiment: Enzyme binding assay (KINOMEscan, DiscoveRx), further kinases of Table A; conditions: PIK3Cα_h
T2 construct: purchased DiscoveRx Corporation, San Diego (contract service, KINOMEscan)
Outline: (§2)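 Compounds were profiled by KINOMEscan to obtain kinase binding affinities.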

kinase enzymes [4] = target: T3, kinase enzymes (Homo sapiens, UniProt P48736); experiment: as above; conditions: PIK3Cγ_h
T3 construct: purchased DiscoveRx Corporation, San Diego (contract service, KINOMEscan)
Outline: as §2

kinase enzymes [5] = target: T4, kinase enzymes (Homo sapiens, UniProt P42345); experiment: as above; conditions: MTOR_h
T4 construct: purchased DiscoveRx Corporation, San Diego (contract service, KINOMEscan)
Outline: as §2

PI3Kδ = target: T5, PI3Kδ (Homo sapiens, UniProt O00329); experiment: Enzyme binding assay (KINOMEscan, DiscoveRx); conditions: PIK3Cδ_h
T5 construct: purchased DiscoveRx Corporation, San Diego (contract service, KINOMEscan)
T5 sequence (O00329 1-1044): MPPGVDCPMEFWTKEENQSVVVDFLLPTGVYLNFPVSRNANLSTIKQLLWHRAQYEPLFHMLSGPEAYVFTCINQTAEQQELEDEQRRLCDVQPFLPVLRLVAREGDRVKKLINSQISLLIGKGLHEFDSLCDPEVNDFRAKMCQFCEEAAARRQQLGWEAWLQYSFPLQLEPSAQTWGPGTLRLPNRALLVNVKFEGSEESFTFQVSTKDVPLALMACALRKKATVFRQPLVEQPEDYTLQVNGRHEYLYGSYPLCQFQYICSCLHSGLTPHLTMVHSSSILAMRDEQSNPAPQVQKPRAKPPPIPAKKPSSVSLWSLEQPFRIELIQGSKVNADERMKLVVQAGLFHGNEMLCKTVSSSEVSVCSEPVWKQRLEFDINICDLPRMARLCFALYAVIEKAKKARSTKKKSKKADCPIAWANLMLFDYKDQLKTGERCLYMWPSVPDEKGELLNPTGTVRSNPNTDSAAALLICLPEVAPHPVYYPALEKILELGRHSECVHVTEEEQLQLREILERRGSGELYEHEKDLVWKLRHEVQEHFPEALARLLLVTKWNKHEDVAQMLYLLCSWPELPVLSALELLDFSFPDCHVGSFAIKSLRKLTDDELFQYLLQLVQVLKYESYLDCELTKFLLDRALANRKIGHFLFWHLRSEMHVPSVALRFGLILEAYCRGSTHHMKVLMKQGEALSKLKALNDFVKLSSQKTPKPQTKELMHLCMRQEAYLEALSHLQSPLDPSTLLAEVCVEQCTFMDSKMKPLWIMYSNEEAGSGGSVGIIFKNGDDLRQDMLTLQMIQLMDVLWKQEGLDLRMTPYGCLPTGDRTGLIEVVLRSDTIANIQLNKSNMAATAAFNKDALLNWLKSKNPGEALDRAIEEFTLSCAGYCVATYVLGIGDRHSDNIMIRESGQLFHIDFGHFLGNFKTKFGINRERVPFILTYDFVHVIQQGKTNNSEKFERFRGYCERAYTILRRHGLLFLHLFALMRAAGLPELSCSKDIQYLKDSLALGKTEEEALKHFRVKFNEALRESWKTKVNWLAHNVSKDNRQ
Outline: as §2

T1 sequence (P42338 whole entry): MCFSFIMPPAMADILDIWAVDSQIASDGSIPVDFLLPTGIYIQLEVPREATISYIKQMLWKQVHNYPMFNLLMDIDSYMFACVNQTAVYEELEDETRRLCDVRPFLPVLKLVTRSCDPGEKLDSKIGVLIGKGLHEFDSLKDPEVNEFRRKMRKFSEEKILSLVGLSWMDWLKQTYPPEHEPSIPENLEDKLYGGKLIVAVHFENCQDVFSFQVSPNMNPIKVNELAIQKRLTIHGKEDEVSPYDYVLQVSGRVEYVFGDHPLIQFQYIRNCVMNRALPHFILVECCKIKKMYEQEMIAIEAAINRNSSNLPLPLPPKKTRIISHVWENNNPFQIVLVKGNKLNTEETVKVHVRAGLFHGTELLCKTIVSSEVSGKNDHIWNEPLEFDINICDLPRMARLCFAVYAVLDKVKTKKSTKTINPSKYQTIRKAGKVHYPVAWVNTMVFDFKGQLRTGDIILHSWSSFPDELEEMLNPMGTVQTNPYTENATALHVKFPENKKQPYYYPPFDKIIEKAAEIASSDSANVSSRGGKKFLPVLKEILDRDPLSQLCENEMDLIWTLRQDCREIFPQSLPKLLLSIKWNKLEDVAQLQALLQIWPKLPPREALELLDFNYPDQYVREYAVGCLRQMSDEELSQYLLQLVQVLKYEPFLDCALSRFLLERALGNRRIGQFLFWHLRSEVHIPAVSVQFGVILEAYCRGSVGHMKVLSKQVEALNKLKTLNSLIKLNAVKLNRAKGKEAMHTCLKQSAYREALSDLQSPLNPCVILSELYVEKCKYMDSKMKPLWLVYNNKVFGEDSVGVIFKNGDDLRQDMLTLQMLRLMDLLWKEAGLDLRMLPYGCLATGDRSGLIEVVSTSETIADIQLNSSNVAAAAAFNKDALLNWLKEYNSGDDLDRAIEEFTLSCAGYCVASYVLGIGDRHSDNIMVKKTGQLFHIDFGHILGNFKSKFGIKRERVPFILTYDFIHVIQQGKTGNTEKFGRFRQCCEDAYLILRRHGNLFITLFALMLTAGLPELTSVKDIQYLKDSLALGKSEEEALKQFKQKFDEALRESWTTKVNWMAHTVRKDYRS
T2 sequence (P42336 whole entry): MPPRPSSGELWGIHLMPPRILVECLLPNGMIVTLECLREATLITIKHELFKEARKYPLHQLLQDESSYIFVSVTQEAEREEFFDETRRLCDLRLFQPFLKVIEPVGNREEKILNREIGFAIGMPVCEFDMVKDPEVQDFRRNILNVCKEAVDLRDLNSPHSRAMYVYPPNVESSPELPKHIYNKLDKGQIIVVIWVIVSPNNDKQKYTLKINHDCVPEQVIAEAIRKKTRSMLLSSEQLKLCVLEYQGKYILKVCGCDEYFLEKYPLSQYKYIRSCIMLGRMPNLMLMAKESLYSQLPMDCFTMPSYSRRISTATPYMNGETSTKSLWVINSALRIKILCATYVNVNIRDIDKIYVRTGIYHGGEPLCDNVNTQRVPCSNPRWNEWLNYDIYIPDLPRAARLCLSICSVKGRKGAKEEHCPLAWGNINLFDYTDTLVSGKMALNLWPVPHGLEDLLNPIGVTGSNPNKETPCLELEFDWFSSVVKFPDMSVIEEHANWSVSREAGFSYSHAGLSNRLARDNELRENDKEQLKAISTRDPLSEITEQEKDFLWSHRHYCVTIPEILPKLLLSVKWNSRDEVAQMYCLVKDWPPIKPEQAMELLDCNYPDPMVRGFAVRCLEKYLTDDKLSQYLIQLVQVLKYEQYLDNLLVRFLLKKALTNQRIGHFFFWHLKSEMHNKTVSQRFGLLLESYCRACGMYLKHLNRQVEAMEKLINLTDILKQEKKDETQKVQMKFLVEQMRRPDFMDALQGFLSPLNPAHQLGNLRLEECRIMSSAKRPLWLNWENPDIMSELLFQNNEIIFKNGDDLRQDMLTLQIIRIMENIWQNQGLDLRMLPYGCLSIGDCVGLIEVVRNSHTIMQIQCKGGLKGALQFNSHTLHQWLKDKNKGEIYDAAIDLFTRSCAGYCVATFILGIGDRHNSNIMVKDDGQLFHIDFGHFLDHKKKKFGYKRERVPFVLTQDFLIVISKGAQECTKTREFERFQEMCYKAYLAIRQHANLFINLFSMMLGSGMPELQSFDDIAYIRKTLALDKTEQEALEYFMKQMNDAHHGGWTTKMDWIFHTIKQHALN
T3 sequence (P48736 whole entry): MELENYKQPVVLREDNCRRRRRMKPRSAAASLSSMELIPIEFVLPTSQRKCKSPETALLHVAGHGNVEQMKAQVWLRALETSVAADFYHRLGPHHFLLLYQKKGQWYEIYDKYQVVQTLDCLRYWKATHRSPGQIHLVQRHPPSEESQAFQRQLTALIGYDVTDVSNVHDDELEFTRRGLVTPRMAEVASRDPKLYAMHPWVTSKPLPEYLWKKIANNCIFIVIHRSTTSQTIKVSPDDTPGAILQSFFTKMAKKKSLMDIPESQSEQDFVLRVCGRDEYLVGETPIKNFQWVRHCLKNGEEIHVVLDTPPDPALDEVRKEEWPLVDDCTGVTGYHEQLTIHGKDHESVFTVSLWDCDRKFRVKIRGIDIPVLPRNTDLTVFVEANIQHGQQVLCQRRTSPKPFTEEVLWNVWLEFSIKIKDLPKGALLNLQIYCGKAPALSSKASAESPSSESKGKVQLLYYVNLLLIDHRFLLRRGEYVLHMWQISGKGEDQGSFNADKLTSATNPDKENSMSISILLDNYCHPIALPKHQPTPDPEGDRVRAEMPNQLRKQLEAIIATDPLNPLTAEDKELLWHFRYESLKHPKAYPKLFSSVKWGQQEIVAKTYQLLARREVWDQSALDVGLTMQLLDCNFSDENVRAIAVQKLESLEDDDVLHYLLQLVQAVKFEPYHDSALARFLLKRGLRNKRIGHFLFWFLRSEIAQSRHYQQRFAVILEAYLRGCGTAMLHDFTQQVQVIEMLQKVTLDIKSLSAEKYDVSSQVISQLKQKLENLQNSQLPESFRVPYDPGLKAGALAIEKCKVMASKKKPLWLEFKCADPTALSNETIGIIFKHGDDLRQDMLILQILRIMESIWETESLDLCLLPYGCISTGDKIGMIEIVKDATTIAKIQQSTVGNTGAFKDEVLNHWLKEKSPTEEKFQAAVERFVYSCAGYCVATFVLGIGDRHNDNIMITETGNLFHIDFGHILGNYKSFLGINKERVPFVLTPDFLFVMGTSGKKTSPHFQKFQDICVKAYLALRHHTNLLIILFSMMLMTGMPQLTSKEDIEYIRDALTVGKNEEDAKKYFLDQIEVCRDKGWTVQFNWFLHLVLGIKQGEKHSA

IC50 [1] [nM]	IC50 [2] [nM]	Kd (PI3Kβ) [nM]	Kd (kinase enzymes [3]) [µM]	Kd (kinase enzymes [4]) [µM]	Kd (kinase enzymes [5]) [µM]	Kd (PI3Kδ) [nM]	IC50 ([1]; Homo sapiens, PC-3, 1 h) [nM]	IC50 ([2]; Homo sapiens, PC-3, 1 h) [nM]	SMILES
39	54	3	1.1	11.7	> 30.2	186	–	–	CC(Nc1ccc(F)c(F)c1)c1cc(C(=O)N2CCC[C@H](O)C2)cc2ncc(N3CCOCC3)nc12 (single isomer, unassigned) [Compound 302b]
16	23	1	1.38	3.24	> 30.2	170	–	–	CC(Nc1cc(F)c(F)c(F)c1)c1cc(C(=O)N(C)C2CCNC2)cc2ncc(N3CCOCC3)nc12 (single isomer, unassigned) [Compound 296a]
> 513	> 513	19	16.6	14.8	21.9	4070	–	–	CNCCNC(=O)c1cc(C(C)Oc2cc(F)cc(F)c2)c2nc(N3CCOCC3)cnc2c1 (single isomer, unassigned) [Compound 166]
–	–	26	3.55	8.32	> 30.2	3800	117	209	Cc1c(F)cccc1NCc1cc(C(=O)NCCO)cc2ncc(N3CCOCC3)nc12 [Compound 381]
> 513	> 513	182	10.2	> 30.2	25.7	5750	–	–	CC(C)NCCNC(=O)c1cc(C(C)Oc2ccc(F)c(F)c2)c2nc(N3CCOCC3)cnc2c1 (single isomer, unassigned) [Compound 286a]
> 513	> 513	832	> 30.2	> 30.2	> 30.2	16200	–	–	CC(Nc1cc(F)cc(F)c1)c1cc(CNCC(F)(F)F)cc2ncc(N3CCOCC3)nc12 (single isomer, unassigned) [Compound 163]
20	23	0.4	0.339	2.29	> 30.2	120	–	–	CC(Nc1cc(F)cc(F)c1)c1cc(C(=O)N(C)C)cc2ncc(C3=CCOCC3)nc12 (single isomer, unassigned) [Compound 158]
–	–	0.3	0.257	1.66	0.562	41	78	48	CC(Nc1cccc(F)c1)c1cc(C(=O)N(C)C)cc2ncc(N3CCOCC3)nc12 (stereo not drawn) [Compound 85]
60	85	2	3.89	25.7	> 30.2	355	–	–	CC(Nc1ccc(F)c(F)c1)c1cc(C(=O)N2CCN3CCC[C@@H]3C2)cc2ncc(N3CCOCC3)nc12 (single isomer, unassigned) [Compound 347b]
23	30	1	0.437	0.741	8.51	98	–	–	CC(Nc1cc(F)cc(F)c1)c1cc(CO)cc2ncc(N3CCOCC3)nc12 (single isomer, unassigned) [Compound 154a]
–	–	62	7.24	20	> 30.2	6760	295	> 513	CC(Nc1cc(F)cc(F)c1)c1cc(-c2cc[nH]n2)cc2ncc(N3CCOCC3)nc12 (stereo not drawn) [Compound 304]
87	62	10	3.98	8.71	> 30.2	1820	–	–	CNCCN(C)C(=O)c1cc(C(C)Nc2cc(F)cc(F)c2)c2nc(N3CCOCC3)cnc2c1 (single isomer, unassigned) [Compound 152]
–	–	1820	> 30.2	> 30.2	> 30.2	> 30200	> 513	> 513	CC(Nc1cc(F)cc(F)c1)c1cc(CN2CCO[C@H](CO)C2)cc2ncc(N3CCOCC3)nc12 (single isomer, unassigned) [Compound 194]
295	> 513	9	2	18.6	> 30.2	912	–	–	CN1CCN(C(=O)c2cc(C3CCCN3c3cc(F)cc(F)c3)c3nc(N4CCOCC4)cnc3c2)CC1 (single isomer, unassigned) [Compound 58]
~513	> 513	166	8.13	14.1	> 30.2	3800	–	–	CNCCNC(=O)c1cc(C(C)Oc2ccc(F)c(F)c2)c2nc(N3CCOCC3)cnc2c1 (single isomer, unassigned) [Compound 344b]
347	> 513	603	6.17	4.07	> 30.2	15500	–	–	CC(C)NCCNC(=O)c1cc(C(C)Nc2cccc(F)c2)c2nc(N3CCOCC3)cnc2c1 (single isomer, unassigned) [Compound 228]
> 513	> 513	74	8.71	> 30.2	> 30.2	7760	–	–	CC(Nc1cc(F)cc(F)c1)c1cc(C(=O)N2CCNC(C(F)(F)F)C2)cc2ncc(N3CCOCC3)nc12 (single isomer, unassigned) [Compound 237b]
–	–	251	5.49	12	24.5	3390	> 513	> 513	O=C(NCCO)c1cc(N2CCC2c2ccc(F)cc2)c2nc(N3CCOCC3)cnc2c1 (stereo not drawn) [Compound 391]
> 513	> 513	1100	> 30.2	> 30.2	> 30.2	16600	–	–	CC(Nc1cc(F)cc(F)c1)c1cc(COCCO)cc2ncc(N3CCOCC3)nc12 (single isomer, unassigned) [Compound 178]
–	–	1	1.29	1.74	14.1	295	68	145	CC(Nc1cccc(F)c1)c1cc(CO)cc2ncc(N3CCOCC3)nc12 (stereo not drawn) [Compound 100]
123	182	2	0.676	5.25	> 30.2	209	–	–	CC(Oc1cc(F)cc(F)c1)c1cc(C(=O)N(C)CCO)cc2ncc(N3CCOCC3)nc12 (single isomer, unassigned) [Compound 61]
282	363	18	4.9	5.62	> 30.2	2340	–	–	CC(Nc1cc(F)c(F)c(F)c1)c1cc(C(=O)NCCN(C)C)cc2ncc(N3CCOCC3)nc12 (single isomer, unassigned) [Compound 309b]

SMILES	IC50 [1] [nM]	IC50 [2] [nM]	Kd (PI3Kβ) [nM]	Kd (kinase enzymes [3]) [µM]	Kd (kinase enzymes [4]) [µM]	Kd (kinase enzymes [5]) [µM]	Kd (PI3Kδ) [nM]	IC50 ([1]; Homo sapiens, PC-3, 1 h) [nM]	IC50 ([2]; Homo sapiens, PC-3, 1 h) [nM]
CC(Oc1cccc(F)c1)c1cc(C(=O)N(C)C)cc2ncc(N3CCOCC3)nc12 (racemic) [Compound 339]	> 513	> 513	427	5.89	9.33	16.2	2460	–	–
CC(Oc1cccc(F)c1)c1cc(C(=O)N(C)C)cc2ncc(N3CCOCC3)nc12 (single isomer, unassigned) [Compound 339b]	> 513	> 513	316	0.759	2.19	6.46	1950	–	–

Source: patent US10526316B2, “Quinoxaline and pyridopyrazine derivatives as PI3Kβ inhibitors” (Janssen Pharmaceutica NV, priority 2015, dated 2020)
